ChEMBL document CHEMBL2429839, “Synthesis and characterization of 2-(4-((1-alkyl or aryl-1H-1,2,3-triazol-4-yl)methoxy)phenyl)naphtho[1,2-d]oxazoles for protein tyrosine phosphatase 1B inhibitory activity” (Med Chem Res, 2013)
pIC50: −log10 of the molar value.

How the values were obtained:
[1] = tested on: HEK293; test: Cytotoxicity against HEK293 cells after 24 hrs by MTT assay; format: cell-based; conditions: Homo sapiens, HEK293, 24 h
[2] = tested on: Rattus norvegicus; test: Antidiabetic activity in Sprague-Dawley albino rat assessed as inhibition of blood glucose level at 50 mg/kg, ip administered 10 mins prior to oral glucose challenge measured after 10 mins by glucometer relative to control; format: functional
[3] = target: T1, Tyrosine-protein phosphatase non-receptor type 1 (Rattus norvegicus, UniProt P20417); test: (§1) Inhibition of PTP1B in rat liver homogenates using p-nitro phenyl phosphate as substrate preincubated for 30 mins followed by substrate addition measured after 10 mins; format: tissue-based
T1 sequence (P20417 whole entry): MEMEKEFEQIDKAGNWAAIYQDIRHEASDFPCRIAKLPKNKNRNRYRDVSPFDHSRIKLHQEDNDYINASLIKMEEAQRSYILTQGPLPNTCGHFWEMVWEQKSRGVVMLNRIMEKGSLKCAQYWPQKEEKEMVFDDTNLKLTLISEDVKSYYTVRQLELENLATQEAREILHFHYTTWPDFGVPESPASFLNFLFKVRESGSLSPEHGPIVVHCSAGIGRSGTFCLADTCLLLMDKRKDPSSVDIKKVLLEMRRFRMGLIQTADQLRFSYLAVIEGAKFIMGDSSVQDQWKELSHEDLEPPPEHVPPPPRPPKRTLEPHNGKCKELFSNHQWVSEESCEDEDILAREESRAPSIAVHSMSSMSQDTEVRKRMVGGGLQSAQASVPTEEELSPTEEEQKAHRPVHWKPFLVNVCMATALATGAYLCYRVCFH

[4] = target: T2, Tyrosine-protein phosphatase non-receptor type 1 (Rattus norvegicus) (UniProt P20417); test: as §1; format: tissue-based
T2 sequence (whole entry): T1 sequence (P20417 whole entry)

[5] = target: T2, Tyrosine-protein phosphatase non-receptor type 1 (Rattus norvegicus); test: (§2) Inhibition of PTP1B in rat liver homogenates using p-nitro phenyl phosphate as substrate at 10 uM preincubated for 30 mins followed by substrate addition measured after 10 mins relative to control; format: tissue-based
[6] = tested on: A549; test: Cytotoxicity against human A549 cells after 24 hrs by MTT assay; format: cell-based; conditions: A549, 24 h
[7] = target: Tyrosine-protein phosphatase non-receptor type 1 (Rattus norvegicus) (UniProt P20417); test: as §2; format: tissue-based; remark: listed apart in the source
[8] = tested on: Rattus norvegicus; test: Antidiabetic activity in Sprague-Dawley albino rat assessed as inhibition of blood glucose level at 300 mg/kg, ip administered 10 mins prior to oral glucose challenge measured after 10 mins by glucometer relative to control; format: functional

Compound | pIC50 [1] | inhibition in vivo at 50 mg/kg [2] | pIC50 [3] | inhibition [4] | inhibition [5] | pIC50 [6] | inhibition [7] | inhibition in vivo at 300 mg/kg [8]
Cc1ccc(-n2cc(COc3ccc(-c4nc5c(ccc6ccccc65)o4)cc3)nn2)cc1 | < 3.00 | 62.6% | 4.69 | Dose-dependent effect | 41.6% | < 3.00 |  | 
SODIUM ORTHOVANAD |  |  |  |  |  |  | 60.7% | 
CN(C)C(=N)NC(=N)N [METFORMIN] |  |  |  |  |  |  |  | 57.1%
FC(F)(F)c1ccc(-n2cc(COc3ccc(-c4nc5c(ccc6ccccc65)o4)cc3)nn2)cc1 | < 3.00 | 78.6% | 5.06 | Dose-dependent effect | 68.3% | < 3.00 |  | 
COc1cccc2c1C(=O)c1c(O)c3c(c(O)c1C2=O)C[C@@](O)(C(=O)CO)C[C@@H]3O[C@H]1C[C@H](N)[C@H](O)[C@H](C)O1 [DOXORUBICIN] | 6.00 |  |  |  |  | 5.40 |  | 
